According to paper PMC7729195, “Pharmacodynamic Functions of Synthetic Derivatives for Treatment of Methicillin-Resistant Staphylococcus aureus (MRSA) and Mycobacterium tuberculosis” (Frontiers in Microbiology, 2020):
Values after ≈ are worked out from the molar mass of the structure shown.

What was measured:
[1] = tested on: MRSA; assay: Bacterial inhibition assay (resazurin), MIC against MRSA; assay type: cell-based, Staphylococcus aureus; set-up: MIC for MRSA: unit not given here
[2] = tested on: M. tuberculosis H37Rv; assay: Bacterial inhibition assay (resazurin), MIC against M. tuberculosis; assay type: cell-based, Mycobacterium tuberculosis; set-up: MIC for TB. H37Rv: unit not given here
[3] = tested on: E. coli EC958; assay: Bacterial inhibition assay (resazurin), MIC against E. coli; assay type: cell-based, Escherichia coli; details: synthetic compounds, 18 h incubation
[4] = tested on: P. aeruginosa PAO1; assay: Bacterial inhibition assay (resazurin), MIC against P. aeruginosa; assay type: cell-based, Pseudomonas aeruginosa; details: Pseudomonas aeruginosa, PAO1; synthetic compounds, 18 h incubation
[5] = tested on: A549; assay type: cell-based; details: human, 7 days
Protocol: (§1) Human alveolar epithelial cells (A549), ([Giard et al., 1973]), Madin-Darby canine kidney epithelial cells (MDCK), ([Gaush et al., 1966]), human leukemia cells (THP-1) ([Tsuchiya et al., 1980]), human hepatocellular carcinoma cells (Hep-G2), ([Aden et al., 1979]), and human embryonic kidney cells 293 (HEK293) ([Graham et al., 1977]) were grown and differentiated in complete RPMI (Roswell Park Memorial Institute Medium) and DMEM (Dulbecco’s Modified Eagle’s medium) tissue culture media (RPMIc and DMEMc). To determine toxicity of the AIMS extract library, 2 × 10^5 of each cell type were added to a 96-well plate and left for 48 h at 37°C to adhere. Extract samples at a final concentration of 0.5 mg mL^–1 were added to the wells, then incubated for 7 days in a humidified 5% CO2 incubator at 37°C. Then resazurin (10 μL of 0.05% w/v) was added, and after 4 h, fluorescence measured as described previously. Cell viability was calculated as percentage fluorescence relative to untreated cells.

[6] = tested on: HEK 293; assay type: cell-based; details: human, 7 days
Protocol: as §1

[7] = tested on: HepG2; assay type: cell-based; details: human, 7 days
Protocol: as §1

[8] = tested on: THP1; assay type: cell-based; details: human, 7 days
Protocol: as §1

[9] = tested on: MRSA; assay: Checkerboard assay with vancomycin against MRSA; assay type: cell-based, Staphylococcus aureus; details: MRSA
[10] = tested on: M. tuberculosis H37Rv; assay: Checkerboard assay with rifampicin against M. tuberculosis; assay type: cell-based, Mycobacterium tuberculosis
[11] = tested on: MRSA; assay: Minimum bactericidal concentration (MBC) for MRSA; assay type: cell-based, Staphylococcus aureus; set-up: unit not given here; details: sub-culture on agar, 18 h
[12] = tested on: TB. H37Rv; assay: Minimum bactericidal concentration (MBC) for TB; assay type: cell-based, Mycobacterium tuberculosis; set-up: unit not given here; details: sub-culture on agar, 7 days
[13] = tested on: MRSA; assay: Time-kill study against MRSA; assay type: cell-based, Staphylococcus aureus
[14] = tested on: M. tuberculosis; assay: Time-kill study against M. tuberculosis; assay type: cell-based, Mycobacterium tuberculosis; details: rifampicin plus compound, day 7 of treatment
Protocol: Time-kill experiments were performed by culturing MRSA and M. tuberculosis in liquid medium in the presence of six synthesized sample concentrations in doubling dilutions ranging from 8 to 0.001 × MIC and 2 × MIC for both bacteria, respectively. Growth curves were initially generated to confirm that bacteria would reach a stable early- to mid-log phase after 2 and 48 h of pre-incubation in antimicrobial-free both medium, respectively. Samples were taken in different incubation times after drug exposure at 0, 2, 4, 6, 8, and 24 h for MRSA and 24, 48 h, and 4 and 6 days for M. tuberculosis and then plated onto agar plates for CFU determination. The experiments were carried out in duplicate and repeated three times.

[15] = tested on: resistant strains; assay: MIC against resistant strains; assay type: cell-based; details: read-out: MIC against resistant strains
[16] = tested on: A549, THP-1, HepG2 and HEK 293 cell lines; assay type: cell-based, human
Protocol: as §1

[17] = M. tuberculosis, compound with rifampicin

CCCCCCCCN(CCCCCCCC)CCc1cn(-c2ccc3c4c(cccc24)C(=O)N(CC)C3=O)nn1 [Compound 18, 6-(4-(2-(Dioctylamino) Ethyl)-1H-1,2,3-Triazol-1-yl)-2-Ethyl-1H-Benzo[de]isoquinoline-1,3(2H)-Dione]
MIC ([1]; Staphylococcus aureus, MRSA, synthetic compounds, 18 h incubation): 12.5 ± 2 µM (≈ 7 µg/mL) | MIC for MRSA ([1]; Table 6 summary): 12.5 | MIC ([2]; Mycobacterium tuberculosis, H37RV, 168 h, synthetic compounds, 7 days incubation): 12.5 ± 1 µM (≈ 7 µg/mL) | MIC for TB. H37Rv ([2]; Table 6 summary): 6.25 | MIC ([3]; Escherichia coli, EC958): 1.5 µM (≈ 0.84 µg/mL) | MIC E. coli [3]: 1.5 ± 4.0 µM (≈ 0.84 µg/mL) | MIC [4]: 12.5 ± 0.8 µM (≈ 7 µg/mL) | Minimum toxicity concentration of drug (MTC) A549 [5]: >100 ± 6.0 µM | Minimum toxicity concentration of drug (MTC) HEK 293 [6]: 3.1 ± 8.2 µM | Minimum toxicity concentration of drug (MTC) HepG2 [7]: >100 ± 5.0 µM | Minimum toxicity concentration of drug (MTC) THP1 [8]: >100 ± 9.0 µM | Drug–drug interactions ([9]; compound with vancomycin): Indifference (0.25–4 indifferent or additive activity) | FIC ([9]; compound with vancomycin): 1.2 | MIC50 ([9]; Staphylococcus aureus, compound alone): 12.5 µM | Drug–drug interactions [10, 17]: Indifference (0.25–4 indifferent or additive activity) | FIC [10, 17]: 1 | MIC50 ([10]; Mycobacterium tuberculosis, H37RV, read-out: Compound alone MIC50 for M. tuberculosis): 6.25 µM | Effect against M. tuberculosis in combination with rifampicin ([10]; rifampicin plus compound): synergistic or bactericidal effects | MBC for MRSA [11]: 12.5 | MBC for TB. H37Rv [12]: 50 | Effect of sub-inhibitory combination with vancomycin on MRSA growth ([13]; sub-inhibitory combinations with vancomycin): substantially inhibited growth of MRSA | Concentration at which killing was observed ([13]; time-kill, MRSA): 12.5 μg mL^–1 | Killing effect with rifampicin [14]: comparable killing effects | MIC [15]: 2.2 µM (≈ 1.23 µg/mL) | Toxicity against THP1 and/or HEK 293 cells [16]: some toxicity
